“Also recorded” adds a separate entry of the source. Read-outs that look alike come from different tables or passages of the source.
How the values were obtained:
NCI-H460 cells [1] = experiment: Cellular ATP levels (CellTiter-Glo assay); type: cell-based, human; conditions: H460, chloroquine, 96 hours after initial exposure (Figure 7B)
Method: Cellular ATP levels (CellTiter-Glo assay) Cells were grown, seeded and compound-treated as for the alamar Blue assay. A volume of the CellTiter-Glo reagent equal to the volume of cell culture media was added to the cells. Plates were mixed for 2 min on an orbital shaker to induce cell lysis before the plate was incubated at room temperature for 10 min to stabilize the signal. The luminescent signal was measured and the media only background was subtracted.

H460 cells = experiment: Autophagy Assay (Cyto-ID Green, flow cytometry); type: cell-based, human; conditions: H460, 25 μM, positive control, 72 h and 96 h
Method: Autophagy Assay was performed as recommended by the manufacturers' instructions (Enzo ENZ-51031-[…]). Briefly, H460 cells were seeded into 6 well plates at 2.5 × 10^5 and 1 × 10^5 cells/well. Immediately after cell plating, chloroquine or […] were added at the concentrations indicated. Following compound treatment, cells were washed once in PBS and resuspended in x1 Cyto-ID Green autophagy detection reagent and incubated at room temperature for 30 min. Immediately prior to analysis, propidium iodide (PI) solution was added to the cell suspension at a final concentration of 2.5 μg/ml, to assess cell death. Analysis was carried out using FACSCalibur (BD Biosciences). Cyto-ID Green autophagy reagent was measured in the FL-1 channel (530/30 nm bandpass filters with excitation at 488 nm) and PI measured in the FL-3 channel (670 nm longpass filters with excitation at 488 nm).

NCI-H460 cells [2] = experiment: Mitochondrial function (alamar blue); type: cell-based, human; conditions: H460, chloroquine, 96 hours after initial exposure (Figure 7B)
Method: Mitochondrial function (alamar blue) NCI-H460 cells were grown in Ham's F12 media supplemented with 10% FCS. Cells were harvested and added to 96-well plates at densities of 250-1000. Compounds were made up from stock solutions and added directly to cells at the concentrations indicated. Cells were grown with compound for the indicated time at 37°C, 5% CO2, in a humidified atmosphere. Alamar Blue 10% (v/v) was then added and incubated for a further 4 h, and fluorescent product detected using the BMG FLUOstar plate reader. The media only background was subtracted and the data analysed as appropriate.

NCI-H460 cells [3] = experiment: Total cellular protein (sulphorhodamine B assay); type: cell-based, human; conditions: H460, chloroquine, 96 hours after initial exposure (Figure 7B)
Method: Control medium/alamar blue were removed and 200 μl PBS was added. […] Wells were rinsed with water and allowed to air dry. Cells were then stained in 0.4% SRB solution, before rinsing with 1% acetic acid and air drying. Incorporated dye was solubilised in 10 mM Tris and absorbance measured at 565 nm and 690 nm. Absorbance measurements at 690 nm were subtracted from the 565 nm readings to correct for multi-well plate absorbance.

[4] = tested on: normal diploid human fibroblasts; experiment: In-vitro morphological cell viability screen, normal fibroblasts; type: cell-based; conditions: for effect on normal diploid fibroblasts (in words): 5 mM
Method: (§2) A broad search for possible biological activity associated with the [sequence] peptide sequence was initially instituted by screening human bladder cancer cell lines for potential in-vitro morphological changes, compared to control cultures of normal diploid human fibroblasts at 4-8 passages from primary culture as controls. […] The peptides were dissolved, over a range of concentrations, in Ham's F12 + 10% FCS and introduced in 100 μL quantities to microwells containing 500 RT112 bladder cancer cells, or normal diploid human fibroblasts, in 200 μL of Ham's F12 + 10% FCS plated 24 hours earlier on 96 well plates.

[5] = tested on: Cdk1 and Cdk4 expression in RT112 cells; experiment: Western blotting of Cdk1 and Cdk4 expression, RT112; type: cell-based, human; conditions: RT112, 5 mM linear end-capped peptide, 0 - 10 days, Western blot
Excerpt: This co-expression is unaffected by cytocidal doses of cisdiamminedichloroplatinum but can accompany spontaneous cancer cell death. Whether or not Cdk1/Cdk4 co-expression remained constant in cancer cells dying as a result of exposure to PRGPRP was thus examined by Western blotting.
(§1) All cell lines were from certified sources.

[6] = tested on: RT112 human bladder cancer cells; experiment: In-vitro morphological cell viability screen, RT112; type: cell-based; conditions: for Cell Viability Human Bladder Cancer: RT112, dose 5.0 mM, Ham's F12 + 10% FCS, morphological appearance
Method: as §2

[7] = tested on: H460 Human Non-small Cell Lung Cancer
[8] = tested on: H460 human non-small cell lung cancer cells; experiment: Necrosis assay by Trypan Blue exclusion, H460; type: cell-based; conditions: H460, 200 μM, 2, 3, 4 and 7 days after plating, triplicate wells
Method: Necrosis Assay Cells were plated in triplicate in 96 well plates at concentrations of 500 cells per well (HT1299, MCF-7) or 1000 cells per well (H460, MRC5-hTERT) in the presence or absence of the relevant compound and assessed by Trypan Blue exclusion At 2,3,4 and 7 days after plating. To assay, cells were trypsinised off, stained with trypan blue in isotonic medium and live and dead cells separately counted visually by haemocytomter. Each data point is the mean of results from triplicate wells (Solid lines - Live cells, Broken lines - Dead Cells; Blue - Control, Red - THR53 200 μM).

[9] = tested on: RT112 human bladder cancer and H460 human non-small lung cancer cell lines; experiment: Cell killing by cyclic amphiphilic peptides (viability and clonogenic survival); type: cell-based; conditions: for improvement in selective cancer cell cytotoxicity: cyclic amphiphilic cassettes compared with the earlier PRGPRP peptides; for time at which cell killing reached a maximum: for the majority of cell lines
Excerpt: Attempts to limit proteolysis and improve cell uptake, by incorporating the hexameric peptide sequence into cyclic peptide cassettes were undertaken, initially without success (Table 3,X-XIII). Linear constructs attaching PRGPRP to a known cell-internalising amphiphilic sequence were also unsuccessful (Table 3,XIV and 3XV). […] Selective toxicity to these cancer cell lines, and not normal fibroblasts, was retained (Table 4).
as §1

[10] = dose 5.0 mM, Ham's F12 + 10% FCS, morphological appearance

CCN(CC)CCCC(C)Nc1ccnc2cc(Cl)ccc12 (centres unmarked) [Chloroquine, reference compound]
ATP levels (NCI-H460 cells [1]): ubiquitous effect | autophagy, Cyto-ID Green FL-1 peak (H460 cells): increase in autophagy | mitochondrial oxidation/reduction (NCI-H460 cells [2]): ubiquitous effect | total cellular protein (NCI-H460 cells [3]): ubiquitous effect

Ac-PRGPRP-NH2 [THR1, linear N'-capped PRGPRP-amide hexapeptide]
effect on normal diploid fibroblasts (in words) [4]: stimulates normal fibroblast growth; also recorded: increases the confluent cell density | Cell Viability Normal Diploid Fibroblasts [4, 10]: + + + + + | Cdk1 expression compared to Cdk4 [5]: progressive rise | toxicity to RT112 human bladder cancer cells (in words) ([6]; 5 mM): greater selective toxicity; also recorded: complete necrosis | Cell Viability Human Bladder Cancer [6]: - - -

Cyc-GGGGGGPRGPRPGGGGGG] (head to tail) [XII]
Cell Viability Normal Diploid Fibroblasts ([4]; dose 200 μM): + + + | Cell Viability Human Non-small Cell Lung Cancer ([7]; H460, dose 200 μM): + + +

Cyc-[AAAGGGPRGPRPGGGAAA] (head to tail) [X]
Cell Viability Normal Diploid Fibroblasts ([4]; dose 200 μM): + + + | Cell Viability Human Non-small Cell Lung Cancer ([7]; H460, dose 200 μM): + + +

Cyc-[AAGPGGPRGPRPGGPGAA] (head to tail) [XIII]
Cell Viability Normal Diploid Fibroblasts ([4]; dose 200 μM): + + + | Cell Viability Human Non-small Cell Lung Cancer ([7]; H460, dose 200 μM): + + +

Cyc-[FPPRRPGPVKLALKLALK] (head to tail) [THR53C]
necrosis detected by trypan blue uptake [8]: not with THR53C | Cell Viability Normal Diploid Fibroblasts ([4]; dose 200 μM): + + + | Cell Viability Human Non-small Cell Lung Cancer ([7]; H460, dose 200 μM): + + +

Cyc-[GGGGGGPRGPRPGGGGGG] (head to tail) [XI]
Cell Viability Normal Diploid Fibroblasts ([4]; dose 200 μM): + + + | Cell Viability Human Non-small Cell Lung Cancer ([7]; H460, dose 200 μM): + + +

Cyc-[PR(Me)GPRPVALKLALKLAL] (head to tail) [XX]
Cell Viability Human Non-small Cell Lung Cancer ([7]; H460, dose 200 μM): + +/-

Cyc-[PRGPR(Me)PVALKLALKLAL] (head to tail) [XXI]
Cell Viability Human Non-small Cell Lung Cancer ([7]; H460, dose 200 μM): ++ +

Cyc-[PRGPRPVALKLALKLAL] (head to tail) [THR54, cyclic amphiphilic analogue, Cyc-[…]]
Cell Viability Normal Diploid Fibroblasts ([4]; dose 100 μM): + + + | Cell Viability Human Non-small Cell Lung Cancer ([7]; H460, dose 100 μM): _ _ _ | improvement in selective cancer cell cytotoxicity [9]: fifty- to a hundred-fold improvement | time at which cell killing reached a maximum [9]: ≤ 4 days

Cyc-[PRGPRPvalklalklal] (head to tail) [THR79, cyclic amphiphilic analogue with D-amino acids, Cyc-[PRGPRPvalklalklal]]
Cell Viability Normal Diploid Fibroblasts ([4]; dose 50 μM): + + + | Cell Viability Human Non-small Cell Lung Cancer ([7]; H460, dose 50 μM): _ _ _ | improvement in selective cancer cell cytotoxicity [9]: fifty- to a hundred-fold improvement | time at which cell killing reached a maximum [9]: ≤ 4 days

FPPRGPRPVQ [I]
effect on normal fibroblasts (in words) ([4]; 1.0 mM): partial sparing | Cell Viability Normal Diploid Fibroblasts ([4]; dose 1.0 mM, Ham's F12 + 10% FCS, morphological appearance): + +/- | toxicity to RT112 human bladder cancer cells (in words) ([6]; 1.0 mM): selectively toxic

Linear FPPRGPRPVKLALKLALK [XIV]
Cell Viability Normal Diploid Fibroblasts ([4]; dose 200 μM): + + + | Cell Viability Human Non-small Cell Lung Cancer ([7]; H460, dose 200 μM): + + +

Linear PRGPRPVALKLALKLAL [XV]
Cell Viability Normal Diploid Fibroblasts ([4]; dose 200 μM): + + + | Cell Viability Human Non-small Cell Lung Cancer ([7]; H460, dose 200 μM): + + +

PEGPEP [IX, hexapeptide with both arginines substituted by glutamic acid]
Cell Viability Normal Diploid Fibroblasts [4, 10]: + + + | Cell Viability Human Bladder Cancer [6]: + + +

PEGPRP [VII, hexapeptide with arginine substituted by glutamic acid]
effect on normal diploid fibroblasts (in words) [4]: no effect | Cell Viability Normal Diploid Fibroblasts [4, 10]: + + + | toxicity to RT112 human bladder cancer cells (in words) ([6]; 5 mM): lacked cytotoxic activity | Cell Viability Human Bladder Cancer [6]: + + +

PRGPEP [VIII, hexapeptide with arginine substituted by glutamic acid]
effect on normal diploid fibroblasts (in words) [4]: no effect | Cell Viability Normal Diploid Fibroblasts [4, 10]: + + + | toxicity to RT112 human bladder cancer cells (in words) ([6]; 5 mM): lacked cytotoxic activity | Cell Viability Human Bladder Cancer [6]: + + +

PRGPR [III, linear N'-capped synthetic peptide amide PRGPR]
Cell Viability Normal Diploid Fibroblasts [4, 10]: + + + | Cell Viability Human Bladder Cancer [6]: - - -

PRRPGP [VI, linear end-capped hexapeptide PRRPGP, one arginine transposed]
Cell Viability Normal Diploid Fibroblasts [4, 10]: + + + | Cdk1 expression compared to Cdk4 [5]: not PRRPGP | toxicity to RT112 human bladder cancer cells (in words) ([6]; 5 mM): markedly diminishes RT112 human bladder cancer cell killing | Cell Viability Human Bladder Cancer [6]: + + +

RGPR [V, shorter linear peptide RGPR]
Cell Viability Normal Diploid Fibroblasts [4, 10]: + + + | toxicity to RT112 human bladder cancer cells (in words) ([6]; 5 mM): inactive | Cell Viability Human Bladder Cancer [6]: + + +

RGPRP [IV, linear N'-capped synthetic pentapeptide amide RGPRP]
effect on normal diploid fibroblasts (in words) [4]: sparing normal diploid fibroblasts | Cell Viability Normal Diploid Fibroblasts [4, 10]: + + + | toxicity to RT112 human bladder cancer cells (in words) ([6]; 5 mM): greater selective toxicity
